One test addresses T1, CYP2C9 (Homo sapiens, UniProt P11712).
T1 construct: Human liver microsome (Corning 452117); tissue Corning 452117; host or cells: human liver microsomes
The test is described as follows: CYP2C9 enzymatic activity inhibition in human liver microsomes. The class given is in vitro ADME. The conditions noted are these: IC50, human liver microsome, substrate diclofenac. As for the experimental part:
(§1) The inhibition of CYP2C9, CYP2D6, and CYP3A4 enzymatic activity by the compound of the present invention was determined using the following method. • I. Experimental materials and instruments • 1. Human liver microsome (Corning 452117) • 2. Na2HPO4 (Sigma SLBZ6180) • 3. KH2PO4 (Sigma SLBT6559) • 4. NADPH (Solarbio 705Y021) • […] • 6. Positive substrates diclofenac (Sigma SLBV3438), dextromethorphan (TRC 3-EDO-175-1), and midazolam (Cerilliant FE01161704) • 7. Positive inhibitors sulfaphenazole (D. Ehrenstorfer GmbH 109012), quinidine (TCI WEODL-RE), and ketoconazole (Sigma 100M1091V) • 7. AB Sciex Triple Quad 5500 liquid chromatography-mass spectrometry system • II. Procedures • 1. Preparation of 100 mM phosphate-buffered saline (PBS): 7.098 g Na2HPO4 was weighed. 500 mL pure water was added. The mixture was dissolved by sonication to give solution A. 3.400 g KH2PO4 was weighed. 250 mL pure water was added. The mixture was dissolved by sonication to give solution B. The solution A was placed in a stirrer, and the solution B was slowly added until the pH reached 7.4 to prepare the 100 mM PBS buffer. • 2. A 10 mM NADPH solution was prepared with a 100 mM PBS buffer. A 10 mM stock solution of the compound of the present invention was diluted with DMSO to give a compound working solution at a concentration of 200× (6000, 2000, 600, 200, 60, 20, and 0 µM). The positive inhibitor stock solution was diluted with DMSO to give a positive inhibitor working solution at a concentration of 200× (sulfaphenazole, 1000, 300, 100, 30, 10, 3, and 0 µM; quinidine/ketoconazole, 100, 30, 10, 3, 1, 0.3, and 0 µM). Substrate working solutions (120 µM diclofenac, 400 µM dextromethorphan, and 200 µM midazolam) at a concentration of 200× were prepared with water, acetonitrile, or acetonitrile/methanol. • 3. […]
(§2) The values were calculated by Excel XLfit 5.3.1.3 to obtain IC50 values for the compounds of the present invention against CYP2C9, CYP2D6, and CYP3A4 as shown in Table 8. […]

The next test has as its target T2, CYP3A4 (Homo sapiens, UniProt P08684).
T2 construct: Human liver microsome (Corning 452117); tissue Corning 452117; host or cells: human liver microsomes
The test is described as follows: CYP3A4 enzymatic activity inhibition in human liver microsomes. The class given is in vitro ADME. The conditions noted are these: IC50, human liver microsome, substrate midazolam. How it is done:
as §1, §2

Test [1] relates to DLD-1 cell subcutaneous tumor model. The test is described as follows: Growth inhibition in DLD-1 cell subcutaneous tumor model. The settings on record: for TGI(%): 15 mg/kg, PO, BID, DLD-1 subcutaneous tumor, NU/NU mice. The class given is in vivo, NU/NU mice. An excerpt:
• Human colorectal cancer DLD-1 cell: ATCC, CCL-221 • RPMI-1640 culture medium: Gibco, REF: 61870-036 • Fetal bovine serum: Gibco, REF: 10091-148 • 0.25% trypsin-EDTA: Gibco, REF: 25200-072 • D-PBS (phosphate-buffered saline without calcium and magnesium ions): Hyclone, Cat. No.: SH30256.01 • Matrigel: Corning, Cat. No.: 356237
• Animal information: NU/NU mice, female, aged 6-7 weeks, 24-30 g, purchased from Beijing Vital River Biotechnology Co., Ltd. • Cell culture: human colon cancer cell strain DLD-1 was cultured in vitro under the conditions of RPMI-1640 (cell culture medium) added with 10% fetal bovine serum and 1% Pen Strep (Gibco penicillin-streptomycin diabody), and an incubator at 37 °C with 5% CO2. The cells were digested with a 0.25% trypsin-EDTA digestive solution twice a week for passaging as per conventional practice. When cell confluence was 80%-90% and a required amount was achieved, the cells were collected and counted. Cell inoculation: 0.1 mL/(containing 5×10^6) DLD-1 cell suspension (RPMI-1640: Matrigel, volume ratio 1: 1) was inoculated subcutaneously into the right lumbar dorsal part of each mouse. On day 6 after inoculation of the cells, the mice were randomly grouped and administrated based on tumor volume. The day when random grouping was performed was day 0.
Tumor diameters were measured twice weekly using a vernier caliper. The tumor volume was calculated using the following formula: V = 0.5a × b^2, where a and b represent the long diameter and short diameter of the tumor, respectively. Mouse body weight was measured twice weekly.
The anti-tumor therapeutic effect of the compound was evaluated by tumor growth inhibition rate TGI (%). TGI (%) = [(1 - (average tumor volume at the end of administration in a treatment group - average tumor volume at the start of administration of the treatment group)) / (average tumor volume at the end of treatment of the solvent control group - average tumor volume at the start of treatment of the solvent control group)] × 100%.

T1 sequence (P11712 whole entry): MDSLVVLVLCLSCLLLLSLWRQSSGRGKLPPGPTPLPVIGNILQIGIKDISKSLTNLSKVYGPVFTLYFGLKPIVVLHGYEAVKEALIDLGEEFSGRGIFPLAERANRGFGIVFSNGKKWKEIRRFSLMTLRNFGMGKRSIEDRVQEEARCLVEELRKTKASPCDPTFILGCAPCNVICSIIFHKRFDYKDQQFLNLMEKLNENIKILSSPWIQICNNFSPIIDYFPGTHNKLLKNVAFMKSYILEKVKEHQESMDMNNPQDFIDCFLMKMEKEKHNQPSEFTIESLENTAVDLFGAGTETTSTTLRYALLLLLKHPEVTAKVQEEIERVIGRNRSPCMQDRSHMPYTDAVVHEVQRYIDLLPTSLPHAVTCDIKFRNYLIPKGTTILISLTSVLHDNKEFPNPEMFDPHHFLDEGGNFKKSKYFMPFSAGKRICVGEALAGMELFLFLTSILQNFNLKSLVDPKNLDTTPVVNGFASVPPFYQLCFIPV
T2 sequence (P08684 whole entry): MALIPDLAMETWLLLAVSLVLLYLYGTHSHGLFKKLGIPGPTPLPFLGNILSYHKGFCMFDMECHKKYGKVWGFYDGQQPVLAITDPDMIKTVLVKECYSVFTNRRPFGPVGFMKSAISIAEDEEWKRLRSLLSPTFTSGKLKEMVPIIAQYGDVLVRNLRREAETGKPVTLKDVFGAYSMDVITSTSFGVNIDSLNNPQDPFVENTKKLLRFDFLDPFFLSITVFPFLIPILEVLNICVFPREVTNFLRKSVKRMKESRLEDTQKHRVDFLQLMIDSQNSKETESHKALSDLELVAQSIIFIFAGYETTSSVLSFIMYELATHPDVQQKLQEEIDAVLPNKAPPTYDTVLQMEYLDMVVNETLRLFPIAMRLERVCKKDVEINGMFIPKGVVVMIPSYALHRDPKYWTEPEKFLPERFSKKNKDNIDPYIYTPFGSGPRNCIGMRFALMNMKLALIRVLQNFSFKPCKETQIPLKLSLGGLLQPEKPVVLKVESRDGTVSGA

As to `[2H]C([2H])([2H])Oc1c(=O)n(C2(CF)CC2)cc2c(N[C@H](C)c3cccc(C(F)F)c3F)nc(C)nc12` [Example 23, (R)-4-((1-(3-(difluoromethyl)-2-fluorophenyl)ethyl)amino)-6-(1-(fluoromethyl)cyclopropyl)-8-(methoxy-d3)-2-methylpyrido[4,3-d]pyrimidine-7(6H)-one], the 50% inhibitory concentration (IC50) on CYP2C9 and at CYP3A4 was above 30 µM each time.

Take `Cc1nc(N[C@H](C)c2cccc(C(F)F)c2F)c2cn(C3(CF)CC3)c(=O)c(N3CCOC[C@@H]3C)c2n1` [Example 40, 4-(((R)-1-(3-(difluoromethyl)-2-fluorophenyl)ethyl)amino)-6-(1-(fluoromethyl)cyclopropyl)-2-methyl-8-((S)-3-methylmorpholine)pyrido[4,3-d]pyrimidine-7(6H)-one]: the “inhibitory effect on tumor growth” value in test [1] (15 mg/kg orally twice a day, P < 0.0001) is listed as “significant inhibitory effect on tumor growth”. For the same molecule, in test [1], the “TGI(%)” value was found to be 59.0%. Besides, the IC50 against CYP2C9 and at CYP3A4 was above 30 µM in each case.

For `[2H][C@](C)(Nc1nc(C)nc2c(N3CCOCC3)c(=O)n(C3(CF)CC3)cc12)c1cccc(C(F)F)c1F` [Example 55, (R)-4-((1-(3-(difluoromethyl)-2-fluorophenyl)ethyl-1-d)amino)-6-(1-(fluoromethyl)cyclopropyl)-2-methyl-8-morpholinylpyrido[4,3-d]pyrimidine-7(6H)-one], the “TGI(%)” value in test [1] amounted to 65.4%. The IC50 at CYP2C9 and on CYP3A4 was above 30 µM each time.

For the origin of these results see patent publication EP4417607A1, “HETEROCYCLIC COMPOUND AS SOS1 INHIBITOR AND USES THEREOF” (Nanjing Zaiming Pharmaceutical Co., Ltd., priority 2021, dated 2023).
